Data from patent US5972950A, “1,2-diarylmethylene derivatives, their methods of preparation and their uses in therapeutics” (Laboratories UPSA, priority 1996, dated 1999).

Key:
[1] = tested on: carrageenan-induced paw oedema; test: oedema with carrageenan (anti-inflammatory activity) in rats; format: in vivo; details: rat, oral, oedema volume 3 hours after carrageenan, n=6
Method: Anti-Inflammatory Activity
The anti-inflammatory activity is evaluated in rats by the test of oedema with carrageenan. The product is administered orally at a rate of 2.5 ml/100 g (n=6 animals per dose) 2 hours 30 minutes after a water overload taken orally (2.5 ml/ 100 g). One hour after administration of the product, the oedema is induced by plantar subcutaneous injection of aqueous 2% carrageenan solution.

[2] = tested on: pain response in kaolin arthritis; test: arthritis with kaolin (analgesic activity) in rats; format: in vivo; details: rat, oral, pain response 5 hours 30 minutes after administration, n=10
Method: The analgesic activity is evaluated in rats by the test of arthritis with kaolin. Thirty minutes after intra-articular administration of an aqueous 10% suspension of kaolin, the product is administered orally at a rate of 1 ml/100 g (n=10 animals per dose).

COX-2 = test: inhibition of COX-2 enzymatic activity (PGE2 by EIA); format: biochemical; details: purified enzyme from ewe placenta, mean ± standard deviation, 4 determinations
Method: (§1) Inhibition Of The COX-1 and COX-2 Enzymatic Activities The molecule studied is preincubated for 10 minutes at 25° C. with 2 U of COX-1 (purified enzyme from ram seminal vesicles) or 1 U of COX-2 (purified enzyme from ewe placenta). Arachidonic acid (6 μM for COX-1, 4, μM for COX-2) is added to the reaction medium and incubation is carried out for 5 minutes at 25° C. When incubation has ended, the enzymatic reaction is stopped by the addition of 1 N HCl and the PGE2 produced is determined by EIA. The results are expressed as the percentage inhibition of the COX-1 and COX-2 enzymatic activities and correspond to mean (±) standard deviations from the average of 4 determinations.

COX-1 = test: inhibition of COX-1 enzymatic activity (PGE2 by EIA); format: biochemical; details: purified enzyme from ram seminal vesicles, mean ± standard deviation, 4 determinations
Method: as §1

| SMILES | Anti-inflammatory activity % inhibition ([1]; 100 mg/kg) [%] | Analgesic activity % inhibition ([2]; 100 mg/kg) [%] | Anti-inflammatory activity % inhibition ([1]; 30 mg/kg) [%] | Analgesic activity % inhibition ([2]; 30 mg/kg) [%] | % inhibition of COX-2 activity (COX-2; 10^-5 M) [%] | % inhibition of COX-2 activity (COX-2; 10^-7 M) [%] | % inhibition of COX-1 activity (COX-1; 10^-5 M) [%] | % inhibition of COX-1 activity (COX-1; 10^-7 M) [%] |
| --- | --- | --- | --- | --- | --- | --- | --- | --- |
| CS(=O)(=O)c1ccc(/C(=C(\CCO)C(=O)[O-])c2ccc(Cl)c(Cl)c2)cc1.[Na+] [Example 27, Sodium (Z)-3-(3,4-dichlorophenyl)-3-(4-methanesulphonylphenyl)-2-(2-hydroxyethyl)prop-2-enoate] | 32.4 ± 8.2 | 63.6 ± 13.2 | – | – | – | – | – | – |
| CCOC(=O)/C(CCO)=C(/c1ccc(S(C)(=O)=O)cc1)c1cc(Cl)cc(Cl)c1 [Example 14, Ethyl (Z)-3-(3,5-dichlorophenyl)-3-(4-methanesulphonylphenyl)-2-(2-hydroxyethyl)prop-2-enoate] | – | – | 28.9 ± 4.5 | 45.8 ± 10.9 | 80 ± 2 | 16 ± 9 | 0 ± 0 | 0 ± 0 |
